Assays:
[1] = system: back of a hairless mouse (HR-1), 10 mass % oleic acid applied; assay: Parakeratosis-inhibiting effect tests: oleic acid applied to hairless mouse back, macroscopic rough skin evaluation and parakeratosis value; format: in vivo; details: for Macroscopic evaluation (average of four animals): 100 μL after oleic acid, three days, rough skin score 0.0 (no redness) to 2.0 (control); for Parakeratosis value (average of four animals): tape-stripped stratum corneum, hematoxylin, range 1.0 to 3.0, higher = parakeratosis advanced, control 2.0; for parakeratosis value / parakeratosis-inhibiting effect / rough skin preventing effect, based on stratum corneum peeling and redness: summary of Table 1, concentrations as in Table 1
Method: Aqueous solutions (containing 30 mass % of ethanol) of primarily 3 mass % of an α-amino acid derivative or salt thereof were prepared as the evaluation sample. The pH was regulated by hydrochloric acid or sodium hydroxide so as to be 7.0 to 7.5. When sample solubility was low, the solution was prepared accordingly.
100 μL of 10 mass % oleic acid solution (solvent: ethanol) were applied to the back of a hairless mouse (HR-1; Hoshino Laboratory Animals). Then the sample solution (α-amino acid derivative, and the like) was applied 100 μL at a time. This procedure was continued for three days. […] The status of the skin was evaluated in 0.25-point intervals, with skin where the control (control aqueous solution) had been applied being 2.0 and skin where there was no redness being 0.0. At the same time, the stratum corneum at the back of the hairless mouse was peeled off with tape, the nuclei were stained by hematoxylin, and the degree of parakeratosis was observed and evaluated by a parakeratosis value within a range of 1.0 to 3.0 (in 0.25 increments).

[2] = system: back of hairless mice (HR-1), 10 mass % oleic acid applied; assay: Inhibiting effect against rough skin induced by oleic acid application (transepidermal water loss); format: in vivo; design: ΔTEWL value: unit not given here; details: for ΔTEWL value: three days, average of four animals, rough skin worse as value increases, control 12.0; for ΔTEWL value compared with the control aqueous solution / rough skin preventing/ameliorating effect: summary of Table 3, concentrations as in Table 3
Method: In order to investigate the inhibiting effect of α-amino acid derivatives and salts thereof against rough skin induced by oleic acid application, the transepidermal water loss (TEWL value) before and after application was measured, the difference was compared with the control (control aqueous solution), and the effect was determined. Sample preparation and the application method were in accordance with Example 1. The TEWL was determined using the TM210 TEWA Meter (Courage+Khazaka Electronic GmBH).
100 μL of 10 mass % oleic acid (solvent: ethanol) was applied to the back of hairless mice (HR-1, four mice per group). Then a sample solution (α-amino acid derivatives, and the like) was applied 100 μL at a time. This procedure was continued for three days. The following day, the TEWL value of the back was determined and the values of the four animals were averaged. Rough skin became worse as the ΔTEWL value increased.

[3] = system: pores of the cheeks of healthy human males; assay: Human pore-shrinking effect (replica assessment of cheek pores); format: in vivo; details: for Replica assessment (average of n = 5): twice a day for one month, pore size rating 1-13, after application minus before application, control 0.3; for pore-shrinking effect: summary of Table 2, concentrations as in Table 2
Method: An experiment was conducted whereby a sample was applied twice a day for one month to the cheeks of healthy human males in groups of 5 men each. Aqueous solutions (containing 15 mass % of ethanol) of 3 mass % of the α-amino acid derivative or a salt thereof were prepared as the evaluation sample. The pH was regulated by hydrochloric acid or sodium hydroxide so as to be 7.0 to 7.5. When sample solubility was low, the solution was prepared accordingly. The control was an aqueous 15% ethanol solution. The sample aqueous solution and control aqueous solution were applied to one half of the face at a time.
A replica was collected before and after continuous application, and changes in the shape of the pores at the same site were observed using a three-dimensional laser scanning microscope. The size of the pores was macroscopically evaluated in 13 steps of 1 through 13 (with the pores becoming larger as the numbers became larger), the difference in the ratings before and after application (after application-before application) was calculated, and the efficacy of each sample was studied using this difference as the replica assessment.

[4] = system: cheek of a panel of 20 women; assay: Sensory irritation tests; format: in vivo, human; details: for Evaluation (sensory irritation, class of average rating): 1 mL on cheek, evaluated for ten minutes, 20 women; for sensory irritation: summary of Table 4, β-alanine at 3%
Method: 1 mL of a control aqueous solution and the sample aqueous solution prepared in Example 1 were applied using a cotton swab to the left or right cheek, respectively, of a panel of 20 women, the irritating sensation was evaluated every 30 seconds for ten minutes beginning immediately after application, and a final evaluation was reported. The evaluation of the irritating sensation was based on the following four steps of rating criteria, the average rating was calculated, and the average was classified by the following criteria.
3: Discontinued because of extremely strong irritation, such as stinging sensation, burning sensation, tickling sensation, itching, and the like.
2: Intolerable strong irritation, such as stinging sensation, burning sensation, tickling sensation, itching, and the like.
1: Tolerable with only slight stinging sensation, burning sensation, tickling sensation, itching, and the like.
0: Not particularly irritating.
A: average rating of less than 0.2
B: average rating of 0.2 to less than 1.0
C: average rating of 1.0 to less than 2.0
D: average rating of 2.0 or greater

Compound | Macroscopic evaluation (average of four animals) ([1]; sample 1.5 mass %) | Parakeratosis value (average of four animals) ([1]; sample 1.5 mass %) | parakeratosis value / parakeratosis-inhibiting effect [1] | rough skin preventing effect, based on stratum corneum peeling and redness [1] | ΔTEWL value ([2]; sample 1.5 mass %) | ΔTEWL value compared with the control aqueous solution / rough skin preventing/ameliorating effect [2] | Replica assessment (average of n = 5) ([3]; sample 1.5 mass %) | pore-shrinking effect [3] | Evaluation (sensory irritation, class of average rating) ([4]; sample 1.5 mass %) | sensory irritation [4] | Macroscopic evaluation (average of four animals) ([1]; sample 3 mass %) | Parakeratosis value (average of four animals) ([1]; sample 3 mass %) | ΔTEWL value ([2]; sample 3 mass %) | Replica assessment (average of n = 5) ([3]; sample 3 mass %) | Evaluation (sensory irritation, class of average rating) ([4]; sample 3 mass %) | Macroscopic evaluation (average of four animals) ([1]; sample 1 mass %) | Parakeratosis value (average of four animals) ([1]; sample 1 mass %) | ΔTEWL value ([2]; sample 1 mass %)
CC(NS(=O)(=O)c1ccccc1)C(=O)O (racemic) [N-benzenesulfonyl-DL-alanine] | 1.4 | 1.5 | reduced | seen | 7.0 | significantly lower | −0.8 | seen | A (average rating of less than 0.2) | no problems | – | – | – | – | – | – | – | –
O=C(O)C(CO)NS(=O)(=O)c1ccccc1 (racemic) [N-benzenesulfonyl-DL-serine] | – | – | reduced | seen | – | significantly lower | – | seen | – | no problems | 1.2 | 1.2 | 6.9 | −1.3 | A (average rating of less than 0.2) | – | – | –
CC(NC(=O)OCc1ccccc1)C(=O)O (racemic) [N-carbobenzoyloxy-DL-alanine] | – | – | reduced | seen | – | significantly lower | – | seen | – | no problems | 1.3 | 1.2 | 6.6 | −1.0 | A (average rating of less than 0.2) | – | – | –
O=C(NC(CO)C(=O)O)OCc1ccccc1 (racemic) [N-carbobenzoyloxy-DL-serine] | – | – | reduced | seen | – | significantly lower | – | seen | – | no problems | 1.2 | 1.2 | 6.7 | −1.3 | A (average rating of less than 0.2) | – | – | –
CC(NC1CCCCC1)C(=O)O (racemic) [N-cyclohexyl-DL-alanine] | – | – | reduced | seen | – | significantly lower | – | seen | – | no problems | 1.3 | 1.4 | 6.5 | −1.4 | A (average rating of less than 0.2) | – | – | –
O=C(O)C(CO)NC1CCCCC1 (racemic) [N-cyclohexyl-DL-serine] | – | – | reduced | seen | – | significantly lower | – | seen | – | no problems | 1.2 | 1.2 | 6.7 | −1.4 | A (average rating of less than 0.2) | – | – | –
CCNC(C)C(=O)O (racemic) [N-ethyl-DL-alanine] | – | – | reduced | seen | – | significantly lower | – | seen | – | no problems | 1.6 | 1.5 | 8.2 | −0.5 | A (average rating of less than 0.2) | – | – | –
O=C(O)CNC(=O)c1ccccc1 [Hippuric acid, reference compound] | – | – | not seen | – | – | not obtained | – | – | – | – | – | – | – | – | – | 1.9 | 2.0 | 10.5
CC(=O)NCC(=O)O [N-acetyl-glycine, reference compound] | – | – | not seen | – | – | not obtained | – | – | – | – | 1.9 | 2.0 | 14.7 | – | – | – | – | –
O=C(O)CNCP(=O)(O)O [Phosphonomethyl-glycine, reference compound] | – | – | not seen | – | – | not obtained | – | – | – | – | – | – | – | – | – | 1.9 | 2.1 | 11.4
NCCC(=O)O [β-alanine, reference compound] | – | – | – | – | – | – | – | – | – | strong sensory irritation | – | – | – | – | D (average rating of 2.0 or greater) | – | – | –
